Experimental data from PMC9079923, “Trifluoromethylated proline analogues as efficient tools to enhance the hydrophobicity and to promote passive diffusion transport of the L-prolyl-L-leucyl glycinamide (PLG) tripeptide” (RSC Advances, 2018).
Residues, ends and D or L forms follow the SMILES beside them.

Assays:
[1] = Parallel artificial membrane permeability assay (PAMPA), in vitro model of the BBB
Description: (§1) We then decided to evaluate the ability of our fluorinated PLG analogues 2 and 3 to cross the BBB through passive diffusion. […] The rate of permeation can be determined by the effective permeability (Pe) as well as the rate of transport values. The membrane retention value can also be obtained and reflects the strength of the interaction between the lipids that mimic the membrane and the peptide.
(§2) The buffer solution was prepared from a commercially concentrated one, supplied by pION. Following the manufacturer's instructions, system solution was adjusted to pH 7.4 using a 0.5 M NaOH solution. The compounds to be analyzed were dissolved in a mixture of buffer solution with 20% of 1-propanol used as co-solvent to ensure their solubility. The PAMPA sandwich was separated, and the donor wells were filled with 195 μL of each compound. A magnetic stirrer was placed in each well. The acceptor plate was put into the donor plate, ensuring that the underside of the membrane was in contact with the buffer. Then, 4 μL of a mixture of phospholipids from a porcine polar brain extract (20 mg mL^−1) in dodecane (composition: 12.6% phosphatidylcholine (PC), 33.1% phosphatidylethanolamine (PE), 18.5% phosphatidylserine (PS), 4.1% phosphatidylinositol (PI), 0.8% phosphatidic acid and 30.9% of other compounds) was added to the filter of each well, followed by 200 μL of buffer solution. The plate was then covered and incubated at room temperature in a saturated humidity atmosphere for 4 h under orbital agitation at 25 μm of unstirred water layer (UWL). After this period, the solution from the donor and acceptor plates was transferred to the UPLC vials. 100 μL of each acceptor and donor samples and 100 μL of t0 samples were injected into the UPLC apparatus.
(§3) Membrane retention was also calculated as the difference of product at t0 and after 4 h in the donor and acceptor compartments.

[2] = Isocratic hydrophobicity index φ0 by RP-HPLC; format: physicochemical; settings: RP-C18
Description: The hydrophobicity of the fluorinated analogues of PLG has then been assessed and compared to the native PLG 1 in order to investigate the specific effect imparted by the CF3 group. […] It is based on the measurement of the isocratic hydrophobicity index (φ0) which is defined as the percentage (by volume) of organic solvent required to achieve an equal distribution of compound between the polar mobile and apolar stationary phases. Thus, higher is the φ0 value, more hydrophobic is the compound. The method involves the measurement of the logarithm of retention factor k (log k) values by reversed-phase high-performance liquid chromatography (RP-HPLC) using various organic-phase concentrations in the mobile phase (in our case, the acetonitrile is used). By plotting the log k values as a function of the acetonitrile concentration, the φ0 value can be obtained from the slope and the intercept of the linear regression (φ0 = −intercept/slope). A good correlation between the φ0 and the log P values was shown.[15] The hydrophobicity index of our peptides was first measured at pH 7. […] The φ0 values were then measured at pH 2 to investigate the impact of the possible ionic form of the PLG peptides 1–3 on the hydrophobicity parameter. The lower φ0 value observed for the native PLG 1 is consistent with its expected polar ionic state (entry 1, Table 1). […] Only a slight decrease in the φ0 value is observed for the (S,S,S)-3 (entry 4, Table 1), that of the (R,S,S)-3 diastereomer remaining almost unchanged (entry 5, Table 1).
An Agilent 1200 series high-performance liquid chromatograph coupled to an ELSD detector was used. The reversed-phase HPLC measurements were carried out on a Zorbax® RX-C18 analytical column (4.6 × 250 mm, 5 μm). The mobile phase was 50 mM ammonium acetate and HPLC grade acetonitrile as organic modifier (pH 7.0) or TFA 0.1% buffer aqueous solution and 0.1% TFA HPLC grade acetonitrile (pH 2). The mobile phase flow rate was ranging from 0.1–1.0 mL min^−1. The dead time (t0) was measured by injecting sodium nitrate together with the sample at a concentration of 10 mM. The samples were dissolved at 1 mg/1 mL in water. Few drops of acetonitrile were added when the dissolution of the peptide was incomplete. The logarithm of retention factor k (log k) values were obtained according to the eqn (1):1 [drawing 1] where tR is the retention time of the compound and t0 the retention time of the unretained sodium nitrate solute.
The log k values were plotted as a function of the acetonitrile concentration. The slope (S) and the intercept (log kw) values were calculated from at least three concentrations of acetonitrile. The correlation coefficients of the linear fit were higher than 0.99. The isocratic hydrophobicity index φ0 was calculated according to the eqn (2):2 φ0 = −log kw/Swhere log kw is the log k value extrapolated to the 0% acetonitrile concentration.

[3] = design: method as in PMID 12667689; settings: cited from earlier work
[4] = PAMPA, pH 7.4
Description: as §1, §2, §3

[5] = pH 7.4, Effective permeability class according to the empirical BBB permeation prediction, pH 7.4, classes by ref 19
[6] = pH 7.4, Pe (× 10^6), effective permeability, pH 7.4, 4 h, 5 mM, mean ± SD
[7] = pH 7, 50 mM ammonium acetate / acetonitrile

Row | Interaction with / retention in the membrane (in words) ([1]; pH 7.4, 4 h) | Membrane retention ([1]; pH 7.4, 4 h) | Transport (%) (4 h) ([1]; pH 7.4, 4 h, 5 mM, mean ± SD) | Papp [1, 5] | Papp [1, 6] | φ0 (isocratic hydrophobicity index) ([2]; pH 2, TFA 0.1% / acetonitrile) | φ0 (isocratic hydrophobicity index) [2, 7] | Permeability / ability to cross the membrane by passive diffusion (in words) [4] | Compound | Crossing of the blood–brain barrier (BBB) [3]
1 | strong interaction with the membrane | 50% | 5.34 ± 0.08% | 2 to 4 ×10⁻⁶ cm/s | 2.68 ± 0.04 ×10⁻⁶ cm/s |  |  |  | CC(C)C[C@H](NC(=O)[C@]1(C(F)(F)F)CCCN1)C(=O)NCC(N)=O [(S,S)-2] | 
2 | no peptide was retained in the membrane |  |  |  |  | 9,2 | 12,3 | very negligible | CC(C)C[C@H](NC(=O)[C@@H]1CCCN1)C(=O)NCC(N)=O [compound 1, L-prolyl-L-leucyl glycinamide] (H-Pro-Leu-Gly-NH2) | known to cross the blood–brain barrier

The remaining lines, values behind:

Row | Compound | Interaction with / retention in the membrane (in words) ([1]; pH 7.4, 4 h) | Membrane retention ([1]; pH 7.4, 4 h) | Transport (%) (4 h) ([1]; pH 7.4, 4 h, 5 mM, mean ± SD) | Papp [1, 5] | Papp [1, 6] | φ0 (isocratic hydrophobicity index) ([2]; pH 2, TFA 0.1% / acetonitrile) | φ0 (isocratic hydrophobicity index) [2, 7] | Permeability / ability to cross the membrane by passive diffusion (in words) [4] | Crossing of the blood–brain barrier (BBB) [3]
3 | (2R,4S)-Ser(Ψ^CF^3,HPro)-L-Leu-Gly-NH2 [(R,S,S)-3] |  |  |  |  |  | 30,4 | 30,8 |  | 
4 | CC(C)C[C@H](NC(=O)[C@@]1(C(F)(F)F)CCCN1)C(=O)NCC(N)=O [(R,S)-2, (R)-α-CF3-Pro-L-Leu-Gly-NH2] | strong interaction with the membrane | 30% | 0.65 ± 0.06% | < 2 ×10⁻⁶ cm/s | 0.31 ± 0.03 ×10⁻⁶ cm/s |  |  |  | 
5 | (2S,4S)-Ser(Ψ^CF^3,HPro)-L-Leu-Gly-NH2 [(S,S,S)-3] |  |  |  |  |  | 25,3 | 27,5 |  | 
